# Reference: ChEMBL document CHEMBL3272354, “Antifilarial agents. 1,2-Cyclobutanediamines as analogues of diethylcarbamazine. Status of structure-activity relationships among diethylcarbamazine analogues” (1977)
# Key:
# Type in all cases: functional
# Litomosoides carinii [1] = assay: In vivo antifilarial activity against Litomosoides carinii
# Litomosoides carinii [2] = assay: Antifilarial activity against Litomosoides carinii infected in gerbil assessed as microfilaria count at 25, 50, 100 and 200 mg/kg administered on days 0, 1, 2 and 3 respectively measured on day 14 relative to control
# Litomosoides carinii [3] = assay: Antifilarial activity against Litomosoides carinii infected in gerbil assessed as microfilaria count at 25, 50, 100 and 200 mg/kg administered on days 0, 1, 2 and 3 respectively measured on day 7 relative to control
# Litomosoides carinii [4] = assay: Antifilarial activity against Litomosoides carinii infected in gerbil assessed as microfilaria count at 25, 50, 100 and 200 mg/kg administered on days 0, 1, 2 and 3 respectively measured on day 1 relative to control
# Litomosoides carinii [5] = assay: Antifilarial activity against Litomosoides carinii infected in gerbil assessed as microfilaria count at 25, 50, 100 and 200 mg/kg administered on days 0, 1, 2 and 3 respectively measured on day 9 relative to control
# Litomosoides carinii [6] = assay: Antifilarial activity against Litomosoides carinii infected in gerbil assessed as microfilaria count at 25, 50, 100 and 200 mg/kg administered on days 0, 1, 2 and 3 respectively measured on day 3 relative to control
# Litomosoides carinii [7] = assay: Antifilarial activity against Litomosoides carinii infected in natal multimammate rat assessed as reduction of microfilaria relative to control; parameters: scale not given: the % may be the effect or the level left
# Litomosoides carinii [8] = assay: Antifilarial activity against Litomosoides carinii infected in gerbil assessed as microfilaria count at 25, 50, 100 and 200 mg/kg administered on days 0, 1, 2 and 3 respectively measured on day 10 relative to control
# Litomosoides carinii [9] = assay: Antifilarial activity against Litomosoides carinii infected in cotton rat assessed as reduction of microfilaria relative to control; parameters: scale not given: the % may be the effect or the level left
# Litomosoides carinii [10] = assay: Antifilarial activity against Litomosoides carinii infected in gerbil assessed as microfilaria count at 25, 50, 100 and 200 mg/kg administered on days 0, 1, 2 and 3 respectively measured on day 11 relative to control
SMILES,Activity (Litomosoides carinii [1]) [%],Activity (Litomosoides carinii [2]) [%],Activity (Litomosoides carinii [3]) [%],Activity (Litomosoides carinii [4]) [%],Activity (Litomosoides carinii [5]) [%],Activity (Litomosoides carinii [6]) [%],Activity (Litomosoides carinii [7]) [%],Activity (Litomosoides carinii [8]) [%],Activity (Litomosoides carinii [9]) [%],Activity (Litomosoides carinii [10]) [%]
CCN(CC)C(=O)N1CCCN(C)CC1,1,,,,,,,,,
CCOC(=O)N[C@H]1CC[C@@H]1N(C)C.O=C(O)/C=C\C(=O)O (relative stereo),,213,158,96,133,190,,,,
CCOC(=O)N[C@H]1CC[C@@H]1NC.Cl,,151,122,101,99,113,,,,
CCOC(=O)N[C@H]1CC[C@@H]1NC(=O)OCC (relative stereo),,208,201,189,240,236,,,,
CCN(CC)C(=O)N[C@H]1CC[C@@H]1N(C)C.O=C(O)CC(O)(CC(=O)O)C(=O)O (relative stereo),,161,111,106,137,113,,,,
CCOC(=O)N[C@H]1CC[C@H]1N(C)C.O=C(O)/C=C\C(=O)O (relative stereo),,199,169,127,154,59,,,,
CN1CCN(C(=O)C2CCCCC2)CC1 [PEXANTEL],,,,,,,1,,,
CCOC(=O)N(C)[C@H]1CC[C@@H]1NC.O=C(O)/C=C\C(=O)O (relative stereo),,165,150,150,95,160,,,,
CCOC(=O)N[C@H]1CC[C@@H]1N.Cl (relative stereo),,153,148,107,,163,,182,,
CCN(CC)C(=O)N1CCN(C)CC1 [DIETHYLCARBAMAZINE],,,,6,29,0.1,,,1,43
CCN(CC)C(=O)N(C)[C@H]1CC[C@@H]1N(C)C.O=C(O)/C=C\C(=O)O (relative stereo),,100,174,185,159,99,,,,
